Data as given in patent publication US8247211B2, “Glycopeptide antibiotics” (American Cyanamid Company, priority 2001, dated 2012).

What was measured:
Assay in all cases: In vitro antibacterial evaluation: minimum inhibitory concentration (MIC), broth dilution method
Assay type in all cases: cell-based
Enterococcus sp. = tested on: Enterococcus sp.
How it was run: (§1)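 Values are minimum inhibitory concentrations, meaning the smallest antibiotic concentration that stops growth of the organism. They come from broth dilution in Muller-Hinton II […] per NCCLS guidance (M7-A2), using 5×10^5 CFU/mL and concentrations from 64 to 0.06 μg/mL.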

Escherichia coli [1] = tested on: Escherichia coli
How it was run: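 First, organisms are seeded at 5×10^5 CFU/mL into Muller-Hinton II […]. Next, antibiotic is applied across 64-0.06 μg/mL by broth dilution (NCCLS M7-A2). Finally, the lowest inhibitory concentration is recorded as MIC.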

Staphylococcus sp. = settings: 18 hours at 35° C.
How it was run: as §1

Streptococcus sp. = settings: 18 hours at 35° C.
How it was run: as §1

Escherichia coli [2] = tested on: Escherichia coli; remark: listed apart in the source
[3] = Enterococcus faecalis (ATCC 29212)
[4] = Enterococcus faecalis (GC 2242), 18 hours at 35° C.
[5] = Enterococcus faecalis (GC 4552), 18 hours at 35° C.
[6] = Enterococcus faecalis (GC 4553)
[7] = Enterococcus faecalis (GC 4554)
[8] = broth dilution, 18 hours at 35° C., strain ATCC 29212
[9] = broth dilution, 18 hours at 35° C., strain GC 2242
[10] = broth dilution, 18 hours at 35° C., strain GC 2243
[11] = broth dilution, 18 hours at 35° C., strain GC 4552
[12] = broth dilution, 18 hours at 35° C., strain GC 4553
[13] = broth dilution, 18 hours at 35° C., strain GC 4554
[14] = broth dilution, 18 hours at 35° C., strain GC 4556
[15] = broth dilution, 18 hours at 35° C., strain GC 4557
[16] = broth dilution, 18 hours at 35° C., strain GC 4558
[17] = Staphylococcus aureus (ATCC 29213)
[18] = Staphylococcus aureus (GC 1131)
[19] = Staphylococcus aureus (GC 4541)
[20] = Staphylococcus aureus (GC 4542)
[21] = Staphylococcus aureus (GC 4544)
[22] = Staphylococcus aureus (GC 4545)
[23] = broth dilution, strain ATCC 29213
[24] = Streptococcus agalactiae (GC 4564)
[25] = Streptococcus pneumoniae (GC 4565)
[26] = Streptococcus pyogenes (ID-3187)

α-O-[(Cyclohexylamino)carbonyl]-cyclo[glycyl-β-methylphenylalanyl-O-(4-O-hexopyranosylhexopyranosyl)tyrosyl-3-(2-iminoimidazolidin-4-yl)seryl-3-(3-hexopyranosyl-2-iminoimidazolidin-4-yl)serylseryl] [Example 256]
64 µg/mL: MIC Enterococcus faecium (GC 4557) (Enterococcus sp.; Enterococcus faecium (GC 4557)) | MIC Enterococcus faecium (GC 4557) (Enterococcus sp.; [15]) | MIC Streptococcus pyogenes (ID-3187) (Streptococcus sp.; [26]) | MIC Streptococcus pyogenes (ID-3187) (Streptococcus sp.; broth dilution, strain ID-3187)
>64 µg/mL: MIC Enterococcus avium (GC 4558) (Enterococcus sp.; Enterococcus avium (GC 4558)) | MIC Enterococcus faecalis (ATCC 29212) (Enterococcus sp.; [3]) | MIC Enterococcus faecalis (GC 2242) (Enterococcus sp.; [4]) | MIC Enterococcus faecalis (GC 4552) (Enterococcus sp.; [5]) | MIC Enterococcus faecalis (GC 4553) (Enterococcus sp.; [6]) | MIC Enterococcus faecalis (GC 4554) (Enterococcus sp.; [7]) | MIC Enterococcus faecium (GC 2243) (Enterococcus sp.; Enterococcus faecium (GC 2243)) | MIC Enterococcus faecium (GC 4556) (Enterococcus sp.; Enterococcus faecium (GC 4556)) | MIC Enterococcus faecalis (ATCC 29212) (Enterococcus sp.; [8]) | MIC Enterococcus faecalis (GC 2242) (Enterococcus sp.; [9]) | MIC Enterococcus faecium (GC 2243) (Enterococcus sp.; [10]) | MIC Enterococcus faecalis (GC 4552) (Enterococcus sp.; [11]) | MIC Enterococcus faecalis (GC 4553) (Enterococcus sp.; [12]) | MIC Enterococcus faecalis (GC 4554) (Enterococcus sp.; [13]) | MIC Enterococcus faecium (GC 4556) (Enterococcus sp.; [14]) | MIC Enterococcus avium (GC 4558) (Enterococcus sp.; [16]) | MIC Escherichia coli (GC 4559) (Escherichia coli [1]) | MIC Coagulase Negative Staphylococcus (GC 4547) (Staphylococcus sp.) | MIC Coagulase Negative Staphylococcus (GC 4548) (Staphylococcus sp.) | MIC Coagulase Negative Staphylococcus (GC 4549) (Staphylococcus sp.) | MIC Coagulase Negative Staphylococcus (GC 4551) (Staphylococcus sp.) | MIC Coagulase Negative Staphylococcus (ID-3941) (Staphylococcus sp.) | MIC Staphylococcus aureus (ATCC 29213) (Staphylococcus sp.; [17]) | MIC Staphylococcus aureus (GC 1131) (Staphylococcus sp.; [18]) | MIC Staphylococcus aureus (GC 4541) (Staphylococcus sp.; [19]) | MIC Staphylococcus aureus (GC 4542) (Staphylococcus sp.; [20]) | MIC Staphylococcus aureus (GC 4544) (Staphylococcus sp.; [21]) | MIC Staphylococcus aureus (GC 4545) (Staphylococcus sp.; [22]) | MIC Staphylococcus aureus-SMITH (GC 4543) (Staphylococcus sp.) | MIC Staphylococcus haemolyticus (GC 4546) (Staphylococcus sp.) | MIC Staphylococcus aureus (ATCC 29213) (Staphylococcus sp.; [23]) | MIC Staphylococcus aureus (GC 1131) (Staphylococcus sp.; broth dilution, strain GC 1131) | MIC Staphylococcus aureus (GC 4541) (Staphylococcus sp.; broth dilution, strain GC 4541) | MIC Staphylococcus aureus (GC 4542) (Staphylococcus sp.; broth dilution, strain GC 4542) | MIC Staphylococcus aureus (GC 4544) (Staphylococcus sp.; broth dilution, strain GC 4544) | MIC Staphylococcus aureus (GC 4545) (Staphylococcus sp.; broth dilution, strain GC 4545) | MIC Streptococcus agalactiae (GC 4564) (Streptococcus sp.; [24]) | MIC Streptococcus pneumoniae (GC 4565) (Streptococcus sp.; [25]) | MIC Streptococcus agalactiae (GC 4564) (Streptococcus sp.; broth dilution, strain GC 4564) | MIC Streptococcus pneumoniae (GC 4565) (Streptococcus sp.; broth dilution, strain GC 4565) | MIC Escherichia coli (ATCC 25922) (Escherichia coli [2])
32 µg/mL: MIC Escherichia coli (GC 4560) (Escherichia coli [1])

β-O-[(Cyclohexylamino)carbonyl]-cyclo[glycyl-β-methylphenylalanyl-O-(4-O-hexonyranosylhexopyranosyl)tyrosyl-3-(2-iminoimidazolidin-4-yl)seryl-3-(3-hexopyranosyl-2-iminoimidazolidin-4-yl)serylseryl] [Example 256a]
>64 µg/mL: MIC Enterococcus avium (GC 4558) (Enterococcus sp.; Enterococcus avium (GC 4558)) | MIC Enterococcus faecalis (ATCC 29212) (Enterococcus sp.; [3]) | MIC Enterococcus faecalis (GC 2242) (Enterococcus sp.; [4]) | MIC Enterococcus faecalis (GC 4552) (Enterococcus sp.; [5]) | MIC Enterococcus faecalis (GC 4553) (Enterococcus sp.; [6]) | MIC Enterococcus faecalis (GC 4554) (Enterococcus sp.; [7]) | MIC Enterococcus faecium (GC 2243) (Enterococcus sp.; Enterococcus faecium (GC 2243)) | MIC Enterococcus faecium (GC 4556) (Enterococcus sp.; Enterococcus faecium (GC 4556)) | MIC Enterococcus faecalis (ATCC 29212) (Enterococcus sp.; [8]) | MIC Enterococcus faecalis (GC 2242) (Enterococcus sp.; [9]) | MIC Enterococcus faecium (GC 2243) (Enterococcus sp.; [10]) | MIC Enterococcus faecalis (GC 4552) (Enterococcus sp.; [11]) | MIC Enterococcus faecalis (GC 4553) (Enterococcus sp.; [12]) | MIC Enterococcus faecalis (GC 4554) (Enterococcus sp.; [13]) | MIC Enterococcus faecium (GC 4556) (Enterococcus sp.; [14]) | MIC Enterococcus avium (GC 4558) (Enterococcus sp.; [16]) | MIC Escherichia coli (GC 4559) (Escherichia coli [1]) | MIC Coagulase Negative Staphylococcus (GC 4547) (Staphylococcus sp.) | MIC Coagulase Negative Staphylococcus (GC 4548) (Staphylococcus sp.) | MIC Coagulase Negative Staphylococcus (GC 4549) (Staphylococcus sp.) | MIC Coagulase Negative Staphylococcus (GC 4551) (Staphylococcus sp.) | MIC Staphylococcus aureus (ATCC 29213) (Staphylococcus sp.; [17]) | MIC Staphylococcus aureus (GC 1131) (Staphylococcus sp.; [18]) | MIC Staphylococcus aureus (GC 4541) (Staphylococcus sp.; [19]) | MIC Staphylococcus aureus (GC 4542) (Staphylococcus sp.; [20]) | MIC Staphylococcus aureus (GC 4544) (Staphylococcus sp.; [21]) | MIC Staphylococcus aureus (GC 4545) (Staphylococcus sp.; [22]) | MIC Staphylococcus aureus-SMITH (GC 4543) (Staphylococcus sp.) | MIC Staphylococcus haemolyticus (GC 4546) (Staphylococcus sp.) | MIC Staphylococcus aureus (ATCC 29213) (Staphylococcus sp.; [23]) | MIC Staphylococcus aureus (GC 1131) (Staphylococcus sp.; broth dilution, strain GC 1131) | MIC Staphylococcus aureus (GC 4541) (Staphylococcus sp.; broth dilution, strain GC 4541) | MIC Staphylococcus aureus (GC 4542) (Staphylococcus sp.; broth dilution, strain GC 4542) | MIC Staphylococcus aureus (GC 4544) (Staphylococcus sp.; broth dilution, strain GC 4544) | MIC Staphylococcus aureus (GC 4545) (Staphylococcus sp.; broth dilution, strain GC 4545) | MIC Streptococcus agalactiae (GC 4564) (Streptococcus sp.; [24]) | MIC Streptococcus agalactiae (GC 4564) (Streptococcus sp.; broth dilution, strain GC 4564) | MIC Escherichia coli (ATCC 25922) (Escherichia coli [2])
32 µg/mL: MIC Enterococcus faecium (GC 4557) (Enterococcus sp.; Enterococcus faecium (GC 4557)) | MIC Enterococcus faecium (GC 4557) (Enterococcus sp.; [15])
64 µg/mL: MIC Coagulase Negative Staphylococcus (ID-3941) (Staphylococcus sp.) | MIC Streptococcus pneumoniae (GC 4565) (Streptococcus sp.; [25]) | MIC Streptococcus pyogenes (ID-3187) (Streptococcus sp.; [26]) | MIC Streptococcus pneumoniae (GC 4565) (Streptococcus sp.; broth dilution, strain GC 4565) | MIC Streptococcus pyogenes (ID-3187) (Streptococcus sp.; broth dilution, strain ID-3187)
8 µg/mL: MIC Escherichia coli (GC 4560) (Escherichia coli [1])
